Test results: patent US9156845B2, “4-(substituted amino)-7H-pyrrolo[2,3-d] pyrimidines as LRRK2 inhibitors” (Pfizer Inc., priority 2012, dated 2015)

Key:
Assay in all cases: ActivX kinase probe assay (human PBMC)
Format in all cases: binding
[1] = test system: ABL, ARG
[2] = target: NEK7 (Homo sapiens (Human), UniProt Q8TDX7); conditions: NEK7, read-out: percent inhibition
[3] = target: KHS1 (Homo sapiens (Human), UniProt Q9Y4K4); conditions: KHS1, read-out: percent inhibition
[4] = target: TLK2 (Homo sapiens (Human), UniProt Q86UE8); conditions: TLK2, read-out: percent inhibition
[5] = target: smMLCK (Homo sapiens (Human), UniProt Q15746); conditions: smMLCK, read-out: percent inhibition
[6] = target: FAK (Homo sapiens (Human), UniProt Q05397); conditions: FAK, read-out: percent inhibition
[7] = target: FYN (Homo sapiens (Human), UniProt P06241); conditions: FYN, read-out: percent inhibition
[8] = target: IKKb (Homo sapiens (Human), UniProt O14920); conditions: IKKb, read-out: percent inhibition
[9] = target: PKR (Homo sapiens (Human), UniProt P19525); conditions: PKR, read-out: percent inhibition
[10] = target: IKKe (Homo sapiens (Human), UniProt Q14164); conditions: IKKe, read-out: percent inhibition
[11] = target: MAST3 (Homo sapiens (Human), UniProt O60307); conditions: MAST3, read-out: percent inhibition
[12] = target: eEF2K (Homo sapiens (Human), UniProt O00418); conditions: eEF2K, read-out: percent inhibition
[13] = target: PKD2 (Homo sapiens (Human), UniProt Q9BZL6); conditions: PKD2, read-out: percent inhibition
[14] = target: CDC2 (Homo sapiens (Human), UniProt P06493); conditions: CDC2, read-out: percent inhibition
[15] = target: LRRK2 (Homo sapiens (Human), UniProt Q5S007); conditions: read-out: percent inhibition
[16] = target: TAO2 (Homo sapiens (Human), UniProt Q9UL54); conditions: TAO2, read-out: percent inhibition
[17] = test system: JNK1, JNK2, JNK3
[18] = target: MAP2K6 (Homo sapiens (Human), UniProt P52564); conditions: MAP2K6, read-out: percent inhibition
[19] = target: ZAK (Homo sapiens (Human), UniProt Q9NYL2); conditions: ZAK, read-out: percent inhibition
[20] = target: SYK (Homo sapiens (Human), UniProt P43405); conditions: SYK, read-out: percent inhibition
[21] = target: MAP3K5 (Homo sapiens (Human), UniProt Q99683); conditions: MAP3K5, read-out: percent inhibition
[22] = target: SLK (Homo sapiens (Human), UniProt Q9H2G2); conditions: SLK, read-out: percent inhibition
[23] = target: LATS2 (Homo sapiens (Human), UniProt Q9NRM7); conditions: LATS2, read-out: percent inhibition
[24] = target: JAK3 domain2 (Homo sapiens (Human), UniProt P52333); conditions: JAK3 domain2, read-out: percent inhibition
[25] = target: DGKA (Homo sapiens (Human), UniProt P23743); conditions: DGKA, read-out: percent inhibition
[26] = target: MSK1 domain1 (Homo sapiens (Human), UniProt O75582); conditions: MSK1 domain1, read-out: percent inhibition
[27] = target: LATS1 (Homo sapiens (Human), UniProt O95835); conditions: LATS1, read-out: percent inhibition
[28] = target: MAP2K3 (Homo sapiens (Human), UniProt P46734); conditions: MAP2K3, read-out: percent inhibition
[29] = test system: p70S6K, p70S6Kb
[30] = target: FGR (Homo sapiens (Human), UniProt P09769); conditions: FGR, read-out: percent inhibition
[31] = target: ZC2/TNIK (Homo sapiens (Human), UniProt Q9UKE5); conditions: ZC2/TNIK, read-out: percent inhibition
[32] = target: p70S6Kb (Homo sapiens (Human), UniProt Q9UBS0); conditions: p70S6Kb, read-out: percent inhibition
[33] = target: JAK1 domain2 (Homo sapiens (Human), UniProt P23458); conditions: JAK1 domain2, read-out: percent inhibition
[34] = test system: IKKe, TBK1
[35] = target: MARK3 (Homo sapiens (Human), UniProt P27448); conditions: MARK3, read-out: percent inhibition

Sequence of ZAK (Q9NYL2 whole entry): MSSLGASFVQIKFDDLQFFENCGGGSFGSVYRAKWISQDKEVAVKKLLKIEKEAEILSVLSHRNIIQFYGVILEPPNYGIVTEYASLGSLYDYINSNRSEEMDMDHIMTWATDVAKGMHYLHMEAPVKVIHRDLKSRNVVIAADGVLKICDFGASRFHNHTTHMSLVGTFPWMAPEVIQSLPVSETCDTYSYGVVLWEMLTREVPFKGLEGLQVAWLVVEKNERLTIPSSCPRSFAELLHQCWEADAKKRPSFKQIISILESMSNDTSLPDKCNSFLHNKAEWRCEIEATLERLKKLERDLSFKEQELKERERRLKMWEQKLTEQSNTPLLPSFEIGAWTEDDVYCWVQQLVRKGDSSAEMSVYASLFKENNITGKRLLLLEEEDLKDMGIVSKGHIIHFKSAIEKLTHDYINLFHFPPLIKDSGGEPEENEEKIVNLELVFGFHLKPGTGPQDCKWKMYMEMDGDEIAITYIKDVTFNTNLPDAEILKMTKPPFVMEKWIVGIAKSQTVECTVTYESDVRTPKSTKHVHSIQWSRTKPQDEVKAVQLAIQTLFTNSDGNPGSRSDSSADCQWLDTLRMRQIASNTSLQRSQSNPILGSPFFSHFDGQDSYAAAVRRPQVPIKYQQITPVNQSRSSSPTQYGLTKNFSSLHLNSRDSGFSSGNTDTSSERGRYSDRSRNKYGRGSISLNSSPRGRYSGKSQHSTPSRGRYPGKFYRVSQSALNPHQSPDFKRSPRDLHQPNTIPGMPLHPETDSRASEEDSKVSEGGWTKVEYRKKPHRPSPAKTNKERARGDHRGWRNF
Sequence of TLK2 (Q86UE8 whole entry): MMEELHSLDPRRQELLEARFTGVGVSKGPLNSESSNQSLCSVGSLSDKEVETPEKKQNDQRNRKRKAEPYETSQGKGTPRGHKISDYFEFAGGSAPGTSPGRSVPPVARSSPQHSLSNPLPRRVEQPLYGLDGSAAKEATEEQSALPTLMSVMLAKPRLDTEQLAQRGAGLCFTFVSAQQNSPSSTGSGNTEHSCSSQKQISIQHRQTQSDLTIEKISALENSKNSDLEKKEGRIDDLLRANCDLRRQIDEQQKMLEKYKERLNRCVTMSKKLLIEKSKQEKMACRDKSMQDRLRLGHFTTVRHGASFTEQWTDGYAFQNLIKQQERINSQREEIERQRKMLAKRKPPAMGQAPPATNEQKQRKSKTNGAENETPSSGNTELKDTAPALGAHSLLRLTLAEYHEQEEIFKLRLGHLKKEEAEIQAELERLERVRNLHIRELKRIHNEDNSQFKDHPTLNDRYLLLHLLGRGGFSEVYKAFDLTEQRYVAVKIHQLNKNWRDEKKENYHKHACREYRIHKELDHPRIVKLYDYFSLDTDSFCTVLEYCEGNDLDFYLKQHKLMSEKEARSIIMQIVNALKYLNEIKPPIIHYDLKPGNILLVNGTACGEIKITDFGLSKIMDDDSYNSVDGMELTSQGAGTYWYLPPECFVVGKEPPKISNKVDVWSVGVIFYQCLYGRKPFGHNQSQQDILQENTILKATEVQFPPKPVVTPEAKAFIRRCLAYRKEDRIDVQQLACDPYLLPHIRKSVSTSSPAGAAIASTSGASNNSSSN
Sequence of DGKA (P23743 whole entry, the tested form may be a part): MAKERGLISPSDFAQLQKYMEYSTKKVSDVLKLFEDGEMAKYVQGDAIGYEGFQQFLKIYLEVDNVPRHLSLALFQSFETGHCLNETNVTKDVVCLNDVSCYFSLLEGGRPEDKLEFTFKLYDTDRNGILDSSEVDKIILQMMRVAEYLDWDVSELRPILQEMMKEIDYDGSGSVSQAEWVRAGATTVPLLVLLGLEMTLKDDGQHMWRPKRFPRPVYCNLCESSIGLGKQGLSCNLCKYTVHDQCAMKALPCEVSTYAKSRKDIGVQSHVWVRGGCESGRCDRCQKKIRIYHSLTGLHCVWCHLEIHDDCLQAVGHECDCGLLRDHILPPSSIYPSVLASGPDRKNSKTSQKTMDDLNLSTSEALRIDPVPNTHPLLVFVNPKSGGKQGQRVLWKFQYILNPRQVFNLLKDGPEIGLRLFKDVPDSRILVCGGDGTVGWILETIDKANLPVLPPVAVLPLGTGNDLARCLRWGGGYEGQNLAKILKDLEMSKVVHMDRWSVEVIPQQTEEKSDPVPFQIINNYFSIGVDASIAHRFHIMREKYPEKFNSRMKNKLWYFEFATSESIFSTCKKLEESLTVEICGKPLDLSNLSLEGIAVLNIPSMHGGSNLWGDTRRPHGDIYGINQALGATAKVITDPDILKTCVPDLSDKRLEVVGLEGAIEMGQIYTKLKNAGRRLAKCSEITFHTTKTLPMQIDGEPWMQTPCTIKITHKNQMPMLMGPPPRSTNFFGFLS
Sequence of KHS1 (Q9Y4K4 whole entry): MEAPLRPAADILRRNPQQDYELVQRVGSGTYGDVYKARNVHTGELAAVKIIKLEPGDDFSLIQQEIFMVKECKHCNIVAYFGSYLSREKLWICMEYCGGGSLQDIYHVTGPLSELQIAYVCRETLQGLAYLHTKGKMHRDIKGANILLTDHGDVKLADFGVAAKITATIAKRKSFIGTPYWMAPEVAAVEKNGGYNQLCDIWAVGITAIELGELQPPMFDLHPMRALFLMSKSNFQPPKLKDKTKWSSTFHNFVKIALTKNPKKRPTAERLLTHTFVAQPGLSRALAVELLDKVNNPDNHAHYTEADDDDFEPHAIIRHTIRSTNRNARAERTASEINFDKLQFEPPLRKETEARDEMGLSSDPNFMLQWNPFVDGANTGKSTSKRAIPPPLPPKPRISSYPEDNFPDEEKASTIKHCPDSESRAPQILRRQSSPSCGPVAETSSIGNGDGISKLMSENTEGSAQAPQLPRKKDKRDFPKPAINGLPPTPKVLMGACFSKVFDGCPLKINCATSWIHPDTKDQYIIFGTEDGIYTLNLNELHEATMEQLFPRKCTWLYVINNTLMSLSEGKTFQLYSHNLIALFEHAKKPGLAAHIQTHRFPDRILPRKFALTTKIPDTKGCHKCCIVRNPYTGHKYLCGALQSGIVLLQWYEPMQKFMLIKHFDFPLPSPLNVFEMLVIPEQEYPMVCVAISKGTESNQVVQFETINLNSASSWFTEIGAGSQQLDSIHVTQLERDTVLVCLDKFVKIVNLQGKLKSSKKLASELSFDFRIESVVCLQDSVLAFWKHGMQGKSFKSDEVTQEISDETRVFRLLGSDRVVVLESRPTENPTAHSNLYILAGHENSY
Sequence of FGR (P09769 whole entry): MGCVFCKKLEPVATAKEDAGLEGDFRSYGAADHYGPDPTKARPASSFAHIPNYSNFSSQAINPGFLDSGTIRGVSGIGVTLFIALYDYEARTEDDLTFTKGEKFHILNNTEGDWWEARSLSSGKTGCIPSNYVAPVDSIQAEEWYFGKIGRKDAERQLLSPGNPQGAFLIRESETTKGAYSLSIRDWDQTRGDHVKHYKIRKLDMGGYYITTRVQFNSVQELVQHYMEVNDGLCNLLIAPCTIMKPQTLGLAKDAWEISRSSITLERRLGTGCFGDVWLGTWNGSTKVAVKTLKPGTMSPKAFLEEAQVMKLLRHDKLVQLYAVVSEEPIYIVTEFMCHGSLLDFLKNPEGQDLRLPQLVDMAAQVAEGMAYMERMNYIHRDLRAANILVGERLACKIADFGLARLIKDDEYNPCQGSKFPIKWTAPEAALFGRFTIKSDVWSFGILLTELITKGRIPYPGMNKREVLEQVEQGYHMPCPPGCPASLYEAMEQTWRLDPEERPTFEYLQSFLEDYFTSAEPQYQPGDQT
Sequence of JAK3 domain2 (P52333 whole entry, the tested form may be a part): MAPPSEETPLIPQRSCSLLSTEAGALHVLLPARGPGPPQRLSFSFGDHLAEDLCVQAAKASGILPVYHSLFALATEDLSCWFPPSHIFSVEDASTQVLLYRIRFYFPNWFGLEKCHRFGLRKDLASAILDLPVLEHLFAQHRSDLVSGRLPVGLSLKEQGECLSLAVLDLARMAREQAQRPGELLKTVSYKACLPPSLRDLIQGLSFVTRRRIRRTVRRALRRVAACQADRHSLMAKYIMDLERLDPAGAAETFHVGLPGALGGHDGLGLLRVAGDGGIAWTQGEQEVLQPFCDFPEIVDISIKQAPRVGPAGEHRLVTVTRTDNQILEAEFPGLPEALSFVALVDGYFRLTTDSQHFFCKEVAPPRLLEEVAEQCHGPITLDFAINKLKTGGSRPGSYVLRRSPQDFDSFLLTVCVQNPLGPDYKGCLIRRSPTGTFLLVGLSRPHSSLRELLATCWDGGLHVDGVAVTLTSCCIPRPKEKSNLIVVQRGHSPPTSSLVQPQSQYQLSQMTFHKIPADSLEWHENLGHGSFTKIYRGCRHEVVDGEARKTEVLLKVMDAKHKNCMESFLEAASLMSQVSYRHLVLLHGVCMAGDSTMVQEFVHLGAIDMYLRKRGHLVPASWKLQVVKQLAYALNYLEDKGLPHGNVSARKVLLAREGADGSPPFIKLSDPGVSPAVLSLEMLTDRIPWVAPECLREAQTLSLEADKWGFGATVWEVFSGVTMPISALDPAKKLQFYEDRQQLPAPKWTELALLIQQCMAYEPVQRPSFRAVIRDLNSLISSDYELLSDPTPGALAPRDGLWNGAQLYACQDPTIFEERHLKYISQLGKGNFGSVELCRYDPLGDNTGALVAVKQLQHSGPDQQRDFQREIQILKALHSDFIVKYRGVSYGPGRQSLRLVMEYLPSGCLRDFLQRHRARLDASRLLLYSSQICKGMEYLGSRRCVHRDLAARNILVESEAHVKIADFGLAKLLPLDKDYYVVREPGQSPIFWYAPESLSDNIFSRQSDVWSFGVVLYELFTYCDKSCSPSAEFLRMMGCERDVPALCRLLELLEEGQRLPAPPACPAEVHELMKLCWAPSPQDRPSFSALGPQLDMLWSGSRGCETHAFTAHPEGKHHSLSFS

Question: `Cn1cc(-c2c[nH]c3ncnc(N4CCOCC4)c23)cn1` [Example 1, 5-(1-Methyl-1H-pyrazol-4-yl)-4-(morpholin-4-yl)-7H-pyrrolo[2,3-d]pyrimidine] was tested. Which percent inhibition ([1]; 0.1 μM) did it give?
Answer: Its percent inhibition is 25.8%.

Question: What about the percent inhibition ([1]; 1 μM) of the same compound?
Answer: Its percent inhibition is 22.5%.

Question: What about the inhibition at 0.1 µM ([2]; 0.1 μM) of the same compound?
Answer: The inhibition at 0.1 µM was -0.6%.

Question: What about the inhibition at 1 µM ([2]; 1 μM) of the same compound?
Answer: Its inhibition at 1 µM is -18.8%.

Question: What about the inhibition at 0.1 µM ([3]; 0.1 μM) of the same compound?
Answer: The inhibition at 0.1 µM was 17.8%.

Question: And the inhibition at 1 µM ([3]; 1 μM)?
Answer: The inhibition at 1 µM was 24.6%.

Question: And the inhibition at 0.1 µM ([4]; 0.1 μM)?
Answer: Its inhibition at 0.1 µM is -5.8%.

Question: And the inhibition at 1 µM ([4]; 1 μM)?
Answer: Its inhibition at 1 µM is -21.1%.

Question: What about the inhibition at 0.1 µM ([5]; 0.1 μM) of the same compound?
Answer: Its inhibition at 0.1 µM is -11.5%.

Question: What about the inhibition at 1 µM ([5]; 1 μM) of the same compound?
Answer: The inhibition at 1 µM was -1.9%.

Question: What about the inhibition at 0.1 µM ([6]; 0.1 μM) of the same compound?
Answer: Its inhibition at 0.1 µM is 18%.

Question: And the inhibition at 1 µM ([6]; 1 μM)?
Answer: Its inhibition at 1 µM is 20%.

Question: And the inhibition at 0.1 µM ([7]; 0.1 μM)?
Answer: The inhibition at 0.1 µM was 6.7%.

Question: And the inhibition at 1 µM ([7]; 1 μM)?
Answer: The inhibition at 1 µM was -10.1%.

Question: What about the inhibition at 0.1 µM ([8]; 0.1 μM) of the same compound?
Answer: The inhibition at 0.1 µM was 16.1%.

Question: And the inhibition at 1 µM ([8]; 1 μM)?
Answer: The inhibition at 1 µM was 10.8%.

Question: What about the inhibition at 0.1 µM ([9]; 0.1 μM) of the same compound?
Answer: Its inhibition at 0.1 µM is -4.3%.

Question: What about the inhibition at 1 µM ([9]; 1 μM) of the same compound?
Answer: The inhibition at 1 µM was -17.3%.

Question: What about the inhibition at 0.1 µM ([10]; 0.1 μM) of the same compound?
Answer: Its inhibition at 0.1 µM is 2.6%.

Question: What about the inhibition at 1 µM ([10]; 1 μM) of the same compound?
Answer: The inhibition at 1 µM was 17.7%.

Question: What about the inhibition at 0.1 µM ([11]; 0.1 μM) of the same compound?
Answer: The inhibition at 0.1 µM was 9%.

Question: What about the inhibition at 1 µM ([11]; 1 μM) of the same compound?
Answer: The inhibition at 1 µM was -6.7%.

Question: And the inhibition at 0.1 µM ([12]; 0.1 μM)?
Answer: The inhibition at 0.1 µM was -9.6%.

Question: And the inhibition at 1 µM ([12]; 1 μM)?
Answer: The inhibition at 1 µM was -6.5%.

Question: And the inhibition at 0.1 µM ([13]; 0.1 μM)?
Answer: The inhibition at 0.1 µM was 2.7%.

Question: And the inhibition at 1 µM ([13]; 1 μM)?
Answer: Its inhibition at 1 µM is 20.1%.

Question: What about the inhibition at 0.1 µM ([14]; 0.1 μM) of the same compound?
Answer: The inhibition at 0.1 µM was -4%.

Question: And the inhibition at 1 µM ([14]; 1 μM)?
Answer: Its inhibition at 1 µM is 14.7%.

Question: What about the inhibition at 0.1 µM ([15]; 0.1 μM) of the same compound?
Answer: The inhibition at 0.1 µM was 69%.

Question: And the inhibition at 1 µM ([15]; 1 μM)?
Answer: Its inhibition at 1 µM is 88.1%.

Question: And the inhibition at 0.1 µM ([16]; 0.1 μM)?
Answer: Its inhibition at 0.1 µM is -6.3%.

Question: And the inhibition at 1 µM ([16]; 1 μM)?
Answer: Its inhibition at 1 µM is -24.2%.

Question: And the percent inhibition ([17]; 0.1 μM)?
Answer: Its percent inhibition is 7.1%.

Question: What about the percent inhibition ([17]; 1 μM) of the same compound?
Answer: Its percent inhibition is 7.7%.

Question: And the inhibition at 0.1 µM ([18]; 0.1 μM)?
Answer: Its inhibition at 0.1 µM is 17.5%.

Question: And the inhibition at 1 µM ([18]; 1 μM)?
Answer: The inhibition at 1 µM was 19%.

Question: What about the inhibition at 0.1 µM ([19]; 0.1 μM) of the same compound?
Answer: Its inhibition at 0.1 µM is 15%.

Question: And the inhibition at 1 µM ([19]; 1 μM)?
Answer: Its inhibition at 1 µM is 23.1%.

Question: And the inhibition at 0.1 µM ([20]; 0.1 μM)?
Answer: The inhibition at 0.1 µM was -8.9%.

Question: What about the inhibition at 1 µM ([20]; 1 μM) of the same compound?
Answer: Its inhibition at 1 µM is -6.1%.

Question: And the inhibition at 0.1 µM ([21]; 0.1 μM)?
Answer: Its inhibition at 0.1 µM is 6.2%.

Question: And the inhibition at 1 µM ([21]; 1 μM)?
Answer: The inhibition at 1 µM was 2.1%.

Question: And the inhibition at 0.1 µM ([22]; 0.1 μM)?
Answer: Its inhibition at 0.1 µM is 22.9%.

Question: What about the inhibition at 1 µM ([22]; 1 μM) of the same compound?
Answer: Its inhibition at 1 µM is 50.6%.

Question: And the inhibition at 0.1 µM ([23]; 0.1 μM)?
Answer: Its inhibition at 0.1 µM is 21.2%.

Question: What about the inhibition at 1 µM ([23]; 1 μM) of the same compound?
Answer: Its inhibition at 1 µM is 11%.

Question: And the inhibition at 0.1 µM ([24]; 0.1 μM)?
Answer: Its inhibition at 0.1 µM is 2.7%.

Question: And the inhibition at 1 µM ([24]; 1 μM)?
Answer: Its inhibition at 1 µM is -5.2%.

Question: What about the inhibition at 0.1 µM ([25]; 0.1 μM) of the same compound?
Answer: Its inhibition at 0.1 µM is -21%.

Question: What about the inhibition at 1 µM ([25]; 1 μM) of the same compound?
Answer: The inhibition at 1 µM was -16.6%.

Question: And the inhibition at 0.1 µM ([26]; 0.1 μM)?
Answer: The inhibition at 0.1 µM was -7%.

Question: And the inhibition at 1 µM ([26]; 1 μM)?
Answer: The inhibition at 1 µM was -30.4%.

Question: And the inhibition at 0.1 µM ([27]; 0.1 μM)?
Answer: Its inhibition at 0.1 µM is 4.2%.

Question: What about the inhibition at 1 µM ([27]; 1 μM) of the same compound?
Answer: Its inhibition at 1 µM is -16.2%.

Question: And the inhibition at 0.1 µM ([28]; 0.1 μM)?
Answer: Its inhibition at 0.1 µM is 14.4%.

Question: And the inhibition at 1 µM ([28]; 1 μM)?
Answer: The inhibition at 1 µM was -9%.

Question: And the percent inhibition ([29]; 0.1 μM)?
Answer: Its percent inhibition is 9.4%.

Question: And the percent inhibition ([29]; 1 μM)?
Answer: Its percent inhibition is −3.5%.

Question: And the inhibition at 0.1 µM ([30]; 0.1 μM)?
Answer: Its inhibition at 0.1 µM is 12.9%.

Question: And the inhibition at 1 µM ([30]; 1 μM)?
Answer: Its inhibition at 1 µM is 4.6%.

Question: And the inhibition at 0.1 µM ([31]; 0.1 μM)?
Answer: Its inhibition at 0.1 µM is -10.6%.

Question: And the inhibition at 1 µM ([31]; 1 μM)?
Answer: Its inhibition at 1 µM is 31.2%.

Question: And the inhibition at 0.1 µM ([32]; 0.1 μM)?
Answer: The inhibition at 0.1 µM was 15%.

Question: And the inhibition at 1 µM ([32]; 1 μM)?
Answer: The inhibition at 1 µM was 10.1%.

Question: And the inhibition at 0.1 µM ([33]; 0.1 μM)?
Answer: The inhibition at 0.1 µM was -8.1%.

Question: What about the inhibition at 1 µM ([33]; 1 μM) of the same compound?
Answer: The inhibition at 1 µM was -13.7%.

Question: And the percent inhibition ([34]; 0.1 μM)?
Answer: Its percent inhibition is 1.5%.

Question: What about the percent inhibition ([34]; 1 μM) of the same compound?
Answer: The percent inhibition was 23.7%.

Question: And the inhibition at 0.1 µM ([35]; 0.1 μM)?
Answer: The inhibition at 0.1 µM was 1%.

Question: And the inhibition at 1 µM ([35]; 1 μM)?
Answer: Its inhibition at 1 µM is 29.1%.
